Measurements: patent US8124610B2, “Sodium channel inhibitors” (Icagen Inc., priority 2007, dated 2012)

Biological target: T1, hSCN9A (Homo sapiens, UniProt Q15858)
T1 construct: expressed in transfected cells
Assay: Whole-cell patch-clamp electrophysiology (conventional or PatchXpress), HEK cells expressing hSCN9A, estimated IC-50
Assay type: cell-based
Settings: estimated IC-50, HEK cells expressing hSCN9A; class symbols or bounds; read-out: SCN9A EIC-50
Procedure: Human Embryonic Kidney (HEK) cells were transfected with hSCN3A or hSCN9A constructs using lipofectamine reagent (Invitrogen), using standard techniques. Cells stably expressing the hSCN3A or hSCN9A constructs were identified by their resistance to G-418 (400 μg/ml). Clones were screened for expression using the whole-cell voltage-clamp technique. HEK cells stably transfected with hSCN3A or hSCN9A were maintained in DMEM medium supplemented with 10% heat-inactivated fetal bovine serum and 400 μg/ml G418 sulfate in an incubator at 37° C. with a humidified atmosphere of 10% CO2. For HTS, cells were harvested from flasks by trypsinization and replated in an appropriate multi-well plate (typically 96 or 384 wells/plate) such that confluence would be achieved within 24 hours of plating. For electrophysiological studies, cells were removed from the culture flask by brief trypsinization and replated at low density onto glass cover slips. Cells were typically used for electrophysiological experiments within 24 to 72 h after plating. Cover slips containing HEK cells expressing hSCN3A or hSCN9A were placed in a bath on the stage of an inverted microscope and perfused (approximately 1 ml/min) with extracellular solution of the following composition: 138 mM NaCl, 2 mM CaCl2, 5.4 mM KCl, 1 mM MgCl2, 10 mM glucose, and 10 mM HEPES, pH 7.4, with NaOH. […] All recordings were made at room temperature (22-24° C.) using AXOPATCH 200B amplifiers and PCLAMP software (Axon Instruments, Burlingame, Calif.) or PatchXpress 7000 hardware and associated software (Axon Instruments, Burlingame, Calif.). hSCN3A or hSCN9A currents in HEK cells were measured using the whole-cell configuration of the patch-clamp technique (Hamill et al., 1981). […] As a result, voltage errors were negligible and no correction was applied. Current records were acquired at 20 to 50 KHz and filtered at 5 to 10 KHz. HEK cells stably transfected with hSCN3A or hSCN9A were viewed under Hoffman contrast optics and placed in front of an array of flow pipes emitting either control or compound-containing extracellular solutions. All compounds were dissolved in dimethyl sulfoxide to make 10 mM stock solutions, which were then diluted into extracellular solution to attain the final concentrations desired. […] The voltage-dependence of inactivation was determined by applying a series of depolarizing prepulses (8 sec long in 10 mV increments) from a negative holding potential. The voltage was then immediately stepped to 0 mV to assess the magnitude of the sodium current. Currents elicited at 0 mV were plotted as a function of prepulse potential to allow estimation of the voltage midpoint of inactivation (V1/2). Cells were then voltage clamped at the empirically determined V1/2. Compounds were tested for their ability to inhibit hSCN3A or hSCN9A sodium channels by activating the channel with a 20 msec voltage step to 0 mV following an 8 second conditioning prepulse to the empirically determined V1-2 (Table B). Compound effect (% inhibition) was determined by difference in current amplitude before and after application of test compounds. […] In some cases electrophysiological assays were conducted with PatchXpress 7000 hardware and associated software (Molecular Devices Corp) (Table B). All assay buffers and solutions were identical to those used in conventional whole-cell voltage clamp experiments described above. hSCN3A or hSCN9A containing cells were grown as above to 50%-80% confluency and harvested by trypsinization. Trypsinized cells were washed and resuspended in extracellular buffer at a concentration of 1×10^6 cells/ml. The onboard liquid handling facility of the PatchXpress was used for dispensing cells and application of test compounds. Determination of the voltage midpoint of inactivation was as described for conventional whole-cell recordings. Cells were then voltage-clamped to the empirically determined V1/2 and current was activated by a 20 msec voltage step to 0 mV.

T1 sequence (Q15858 whole entry): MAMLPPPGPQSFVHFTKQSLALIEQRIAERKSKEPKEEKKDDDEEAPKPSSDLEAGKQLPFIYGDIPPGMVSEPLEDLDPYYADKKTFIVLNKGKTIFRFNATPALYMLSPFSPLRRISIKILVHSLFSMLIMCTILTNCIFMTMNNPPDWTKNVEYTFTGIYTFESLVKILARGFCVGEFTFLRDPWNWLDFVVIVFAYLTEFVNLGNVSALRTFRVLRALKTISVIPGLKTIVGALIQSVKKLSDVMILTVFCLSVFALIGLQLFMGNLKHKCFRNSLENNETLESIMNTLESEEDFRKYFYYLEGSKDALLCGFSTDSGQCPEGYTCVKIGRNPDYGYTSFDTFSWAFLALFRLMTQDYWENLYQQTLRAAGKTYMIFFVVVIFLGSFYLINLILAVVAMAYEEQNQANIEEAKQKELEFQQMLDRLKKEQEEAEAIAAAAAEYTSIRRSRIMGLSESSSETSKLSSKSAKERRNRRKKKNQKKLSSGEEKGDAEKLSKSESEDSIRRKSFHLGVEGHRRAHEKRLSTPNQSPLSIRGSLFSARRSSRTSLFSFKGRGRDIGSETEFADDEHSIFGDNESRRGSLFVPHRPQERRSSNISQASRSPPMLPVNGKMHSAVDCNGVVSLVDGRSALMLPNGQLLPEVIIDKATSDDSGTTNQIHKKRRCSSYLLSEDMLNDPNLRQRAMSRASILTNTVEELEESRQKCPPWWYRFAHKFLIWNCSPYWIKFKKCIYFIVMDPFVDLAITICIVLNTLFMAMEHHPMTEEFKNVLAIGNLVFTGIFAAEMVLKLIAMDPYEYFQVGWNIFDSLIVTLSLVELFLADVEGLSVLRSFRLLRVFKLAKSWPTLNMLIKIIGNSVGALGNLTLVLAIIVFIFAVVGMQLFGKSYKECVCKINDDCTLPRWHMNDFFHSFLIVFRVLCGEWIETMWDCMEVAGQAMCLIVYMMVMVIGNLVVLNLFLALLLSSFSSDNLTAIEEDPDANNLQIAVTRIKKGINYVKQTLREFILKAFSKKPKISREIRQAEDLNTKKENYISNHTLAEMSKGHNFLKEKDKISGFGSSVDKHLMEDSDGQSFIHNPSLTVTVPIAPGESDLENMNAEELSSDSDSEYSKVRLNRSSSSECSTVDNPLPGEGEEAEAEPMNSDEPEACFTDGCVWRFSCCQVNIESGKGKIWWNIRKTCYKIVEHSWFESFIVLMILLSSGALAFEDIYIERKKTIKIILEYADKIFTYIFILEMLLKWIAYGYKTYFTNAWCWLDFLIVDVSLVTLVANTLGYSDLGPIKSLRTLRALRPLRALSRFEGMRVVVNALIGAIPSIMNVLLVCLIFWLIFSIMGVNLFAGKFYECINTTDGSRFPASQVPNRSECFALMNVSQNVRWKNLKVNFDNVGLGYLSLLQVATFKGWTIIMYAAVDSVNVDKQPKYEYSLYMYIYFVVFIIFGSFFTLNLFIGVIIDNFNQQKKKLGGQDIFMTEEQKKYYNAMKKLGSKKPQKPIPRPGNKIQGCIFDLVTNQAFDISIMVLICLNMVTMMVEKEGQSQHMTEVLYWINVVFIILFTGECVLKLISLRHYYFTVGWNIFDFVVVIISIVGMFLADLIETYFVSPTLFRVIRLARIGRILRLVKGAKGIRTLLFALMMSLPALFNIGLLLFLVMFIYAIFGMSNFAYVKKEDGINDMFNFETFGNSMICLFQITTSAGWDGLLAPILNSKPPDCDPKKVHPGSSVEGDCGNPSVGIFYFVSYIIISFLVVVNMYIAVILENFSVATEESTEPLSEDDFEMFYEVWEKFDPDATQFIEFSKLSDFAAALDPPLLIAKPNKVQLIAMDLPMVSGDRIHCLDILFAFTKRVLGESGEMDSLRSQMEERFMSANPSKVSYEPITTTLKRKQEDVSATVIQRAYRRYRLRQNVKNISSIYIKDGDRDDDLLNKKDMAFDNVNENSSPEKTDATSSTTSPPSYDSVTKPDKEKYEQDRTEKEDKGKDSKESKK

SMILES | IC50 [nM]
COc1cccc(-n2nc(C)cc2Nc2ccc(S(=O)(=O)Nc3nccs3)c(F)c2)c1 [Compound 220, 2-fluoro-4-(1-(3-methoxyphenyl)-3-methyl-1H-pyrazol-5-ylamino)-N-(thiazol-2-yl)benzenesulfonamide] | < 2000
Cn1nc(CC(C)(C)C)cc1Nc1ccc(S(=O)(=O)Nc2nccs2)cc1 [Compound 125, 4-(1-methyl-3-neopentyl-1H-pyrazol-5-ylamino)-N-(thiazol-2-yl)benzenesulfonamide] | 2000 to 10000
Cc1cc(Nc2ccc(S(=O)(=O)Nc3nccs3)cc2)n(CC2CCCCC2)n1 [Compound 132, 4-(1-(cyclohexylmethyl)-3-methyl-1H-pyrazol-5-ylamino)-N-(thiazol-2-yl)benzenesulfonamide] | > 1000
O=S(=O)(Nc1nccs1)c1ccc(Nc2cnn(C(c3ccccc3)c3ccccc3)c2)cc1F [Compound 171, 4-(1-benzhydryl-1H-pyrazol-4-ylamino)-2-fluoro-N-(thiazol-2-yl)benzenesulfonamide] | < 2000
CCc1nnc(NS(=O)(=O)c2ccc(Nc3cc(C)nn3-c3ccccc3)cc2F)s1 [Compound 246, N-(5-ethyl-1,3,4-thiadiazol-2-yl)-2-fluoro-4-(3-methyl-1-phenyl-1H-pyrazol-5-ylamino)benzenesulfonamide] | > 1000
O=S(=O)(Nc1ccncn1)c1ccc(Nc2ccn(Cc3ccc(Cl)cc3)n2)cc1F [Compound 262, 4-(1-(4-chlorobenzyl)-1H-pyrazol-3-ylamino)-2-fluoro-N-(pyrimidin-4-yl)benzenesulfonamide] | 2000 to 10000
COCc1nnc(NS(=O)(=O)c2ccc(Nc3cc(C)nn3-c3ccccc3)cc2F)s1 [Compound 249, 2-fluoro-N-(5-(methoxymethyl)-1,3,4-thiadiazol-2-yl)-4-(3-methyl-1-phenyl-1H-pyrazol-5-ylamino)benzenesulfonamide] | > 1000
Cc1cc(Nc2ccc(S(=O)(=O)Nc3nccs3)c(C)c2)n(-c2ccccc2)n1 [Compound 268, 2-methyl-4-(3-methyl-1-phenyl-1H-pyrazol-5-ylamino)-N-(thiazol-2-yl)benzenesulfonamide] | 2000 to 10000
N#Cc1cn(-c2ccccc2)nc1Nc1ccc(S(=O)(=O)Nc2nccs2)c(F)c1 [Compound 180, 4-(4-cyano-1-phenyl-1H-pyrazol-3-ylamino)-2-fluoro-N-(thiazol-2-yl)benzenesulfonamide] | 2000 to 10000
CC(C)(C)n1nc(Cc2ccc(Cl)c(F)c2)cc1Nc1ccc(S(=O)(=O)Nc2nccs2)c(F)c1 [Compound 166, 4-(1-tert-butyl-3-(4-chloro-3-fluorobenzyl)-1H-pyrazol-5-ylamino)-2-fluoro-N-(thiazol-2-yl)benzenesulfonamide] | < 2000
COCc1nnc(NS(=O)(=O)c2ccc(Nc3ccn(Cc4ccc(Cl)cc4)n3)cc2F)s1 [Compound 254, 4-(1-(4-chlorobenzyl)-1H-pyrazol-3-ylamino)-2-fluoro-N-(5-(methoxymethyl)-1,3,4-thiadiazol-2-yl)benzenesulfonamide] | > 1000
Cc1cc(Nc2ccc(S(=O)(=O)Nc3nccs3)c(F)c2)n(-c2cccc(F)c2)n1 [Compound 177, 2-fluoro-4-(1-(3-fluorophenyl)-3-methyl-1H-pyrazol-5-ylamino)-N-(thiazol-2-yl)benzenesulfonamide] | < 2000
CC(C)(C)c1ccc(OCc2csc(Nc3ccc(S(=O)(=O)Nc4nccs4)c(F)c3)n2)cc1 [Compound 102, 4-(4-((4-tert-butylphenoxy)methyl)thiazol-2-ylamino)-2-fluoro-N-(thiazol-2-yl)benzenesulfonamide] | < 2000
Cc1ccc(Cc2cc(Nc3ccc(S(=O)(=O)Nc4nccs4)cc3F)n(C)n2)cc1 [Compound 160, 3-fluoro-4-(1-methyl-3-(4-methylbenzyl)-1H-pyrazol-5-ylamino)-N-(thiazol-2-yl)benzenesulfonamide] | < 2000
O=S(=O)(Nc1nc(C(F)(F)F)co1)c1ccc(Nc2nc(Cc3ccc(Cl)cc3)cs2)cc1 [Compound 258, 4-(4-(4-chlorobenzyl)thiazol-2-ylamino)-N-(4-(trifluoromethyl)oxazol-2-yl)benzenesulfonamide] | > 1000
O=S(=O)(Nc1nccs1)c1ccc(Nc2cnn(Cc3ccc(Cl)cc3)c2)cn1 [Compound 231, 5-(1-(4-chlorobenzyl)-1H-pyrazol-4-ylamino)-N-(thiazol-2-yl)pyridine-2-sulfonamide] | 2000 to 10000
Cn1nc(Cc2ccc(F)cc2F)cc1Nc1ccc(S(=O)(=O)Nc2nccs2)cc1 [Compound 139, 4-(3-(2,4-difluorobenzyl)-1-methyl-1H-pyrazol-5-ylamino)-N-(thiazol-2-yl)benzenesulfonamide] | < 2000
O=S(=O)(Nc1nccs1)c1ccc(Nc2ccn(Cc3ccccc3)n2)cc1F [Compound 211, 4-(1-benzyl-1H-pyrazol-3-ylamino)-2-fluoro-N-(thiazol-2-yl)benzenesulfonamide] | 2000 to 10000
Cc1cc(Nc2ccc(S(=O)(=O)Nc3nccs3)c(F)c2)n(-c2cccc(C(F)(F)F)c2)n1 [Compound 181, 2-fluoro-4-(3-methyl-1-(3-(trifluoromethyl)phenyl)-1H-pyrazol-5-ylamino)-N-(thiazol-2-yl)benzenesulfonamide] | < 2000
Cc1cc(Nc2ccc(S(=O)(=O)Nc3nnc(C(C)C)s3)c(F)c2)n(-c2ccccc2)n1 [Compound 252, 2-fluoro-N-(5-isopropyl-1,3,4-thiadiazol-2-yl)-4-(3-methyl-1-phenyl-1H-pyrazol-5-ylamino)benzenesulfonamide] | > 1000
Cc1cc(Nc2ccc(S(=O)(=O)Nc3nnc(C4CC4)s3)c(F)c2)n(-c2ccccc2)n1 [Compound 250, N-(5-cyclopropyl-1,3,4-thiadiazol-2-yl)-2-fluoro-4-(3-methyl-1-phenyl-1H-pyrazol-5-ylamino)benzenesulfonamide] | > 1000
COc1ccc(Cc2cc(Nc3ccc(S(=O)(=O)Nc4nccs4)cc3)n(C)n2)cc1 [Compound 126, 4-(3-(4-methoxybenzyl)-1-methyl-1H-pyrazol-5-ylamino)-N-(thiazol-2-yl)benzenesulfonamide] | > 1000
Cc1cc(Nc2ccc(S(=O)(=O)Nc3nncs3)c(F)c2)n(-c2ccccc2)n1 [Compound 238, 2-fluoro-4-(3-methyl-1-phenyl-1H-pyrazol-5-ylamino)-N-(1,3,4-thiadiazol-2-yl)benzenesulfonamide] | 2000 to 10000
Cc1cc(Nc2ccc(S(=O)(=O)Nc3nccs3)c(F)c2)n(-c2ccccc2C(F)(F)F)n1 [Compound 179, 2-fluoro-4-(3-methyl-1-(2-(trifluoromethyl)phenyl)-1H-pyrazol-5-ylamino)-N-(thiazol-2-yl)benzenesulfonamide] | < 2000
O=S(=O)(Nc1nccs1)c1ccc(Nc2cnn(Cc3ccc(Cl)c(C(F)(F)F)c3)c2)cc1F [Compound 229, 4-(1-(4-chloro-3-(trifluoromethyl)benzyl)-1H-pyrazol-4-ylamino)-2-fluoro-N-(thiazol-2-yl)benzenesulfonamide] | < 2000
Cn1nc(Cc2ccc(C(F)(F)F)cc2)cc1Nc1ccc(S(=O)(=O)Nc2nccs2)cc1 [Compound 138, 4-(1-methyl-3-(4-(trifluoromethyl)benzyl)-1H-pyrazol-5-ylamino)-N-(thiazol-2-yl)benzenesulfonamide] | < 2000
Cn1nc(Cc2cccc(Cl)c2)cc1Nc1ccc(S(=O)(=O)Nc2nccs2)cc1 [Compound 218, 4-(3-(3-chlorobenzyl)-1-methyl-1H-pyrazol-5-ylamino)-N-(thiazol-2-yl)benzenesulfonamide] | < 2000
